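Step 1: Grow cells in 96-well plates. Step 2: Expose to compound for 48 hours at 5 concentrations. Step 3: Interpolate endpoints linearly; if unreached, use highest concentration. TGI: concentration producing complete growth inhibition.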
What was measured:
Experiment in all cases: NCI anticancer screen, dose series, 48 h
K-562 leukemia = system: K-562 leukemia
HCC-2998 colon = system: HCC-2998 colon
M14 melanoma = system: M14 melanoma
RXF 393 renal = system: RXF 393 renal
EKVX NSCLC = system: EKVX NSCLC
SK-MEL-28 melanoma = system: SK-MEL-28 melanoma
M19-MEL melanoma = system: M19-MEL melanoma
SK-MEL-2 melanoma = system: SK-MEL-2 melanoma
NCI-H522 lung = system: NCI-H522 lung
CCRF-CEM leukemia = system: CCRF-CEM leukemia
SW-620 colon = system: SW-620 colon
OVCAR-5 ovarian = system: OVCAR-5 ovarian
SK-OV-3 ovarian = system: SK-OV-3 ovarian
KM20L2 colon = system: KM20L2 colon
RPMI-8226 leukemia = system: RPMI-8226 leukemia
COLO 205 colon = system: COLO 205 colon
DMS 273 small cell lung = system: DMS 273 small cell lung
TK-10 renal = system: TK-10 renal
SNB-75 CNS = system: SNB-75 CNS
DMS 114 small cell lung = system: DMS 114 small cell lung
HOP-92 NSCLC = system: HOP-92 NSCLC
OVCAR-8 ovarian = system: OVCAR-8 ovarian
A549 NSCLC = system: A549 NSCLC
HT29 colon = system: HT29 colon
SF-268 CNS = system: SF-268 CNS
HOP-62 NSCLC = system: HOP-62 NSCLC
UACC-257 melanoma = system: UACC-257 melanoma
UACC-62 melanoma = system: UACC-62 melanoma
DLD-1 colon = system: DLD-1 colon
HOP-18 NSCLC = system: HOP-18 NSCLC
KM12 colon = system: KM12 colon
SK-MEL-5 melanoma = system: SK-MEL-5 melanoma
HCT-116 colon = system: HCT-116 colon
CAKI-1 renal = system: CAKI-1 renal
A498 renal = system: A498 renal
UO-31 renal = system: UO-31 renal
ACHN renal = system: ACHN renal
HCT-15 colon = system: HCT-15 colon
OVCAR-4 ovarian = system: OVCAR-4 ovarian
SN12C renal = system: SN12C renal
MOLT-4 leukemia = system: MOLT-4 leukemia
MALME-3M melanoma = system: MALME-3M melanoma
SNB-19 CNS = system: SNB-19 CNS
U251 CNS = system: U251 CNS
IGROV1 ovarian = system: IGROV1 ovarian
786-0 renal = system: 786-0 renal
RXF-631 renal = system: RXF-631 renal
NCI-H23 lung = system: NCI-H23 lung
LOX IMVI melanoma = system: LOX IMVI melanoma
OVCAR-3 ovarian = system: OVCAR-3 ovarian
LXFL 529 NSCLC = system: LXFL 529 NSCLC
XF 498 CNS = system: XF 498 CNS
NCI-H460 lung = system: NCI-H460 lung
NCI-H226 lung = system: NCI-H226 lung

Cc1cccc(C(C)C)c1NC(=O)C(=O)C(C(=O)c1ccccc1F)C1OC(=O)c2ccccc21 (centres undefined)
TGI (K-562 leukemia): > 100 µM
TGI (HCC-2998 colon): 26.6 µM
TGI (M14 melanoma): 38.5 µM
TGI (RXF 393 renal): 27.5 µM
TGI (EKVX NSCLC): 96.6 µM
TGI (SK-MEL-28 melanoma): 53.7 µM
TGI (M19-MEL melanoma): 26.4 µM
TGI (SK-MEL-2 melanoma): 30.1 µM
TGI (NCI-H522 lung): 33.6 µM
TGI (CCRF-CEM leukemia): 41 µM
TGI (SW-620 colon): 58.9 µM
TGI (OVCAR-5 ovarian): 99.9 µM
TGI (SK-OV-3 ovarian): 64.9 µM
TGI (KM20L2 colon): 76.5 µM
TGI (RPMI-8226 leukemia): 28.5 µM
TGI (COLO 205 colon): 41 µM
TGI (DMS 273 small cell lung): 44.3 µM
TGI (TK-10 renal): 91.1 µM
TGI (SNB-75 CNS): 45.9 µM
TGI (DMS 114 small cell lung): 36.1 µM
TGI (HOP-92 NSCLC): 48.2 µM
TGI (OVCAR-8 ovarian): 59.7 µM
TGI (A549 NSCLC): > 100 µM
TGI (HT29 colon): 71.7 µM
TGI (SF-268 CNS): 92.9 µM
TGI (HOP-62 NSCLC): 35.8 µM
TGI (UACC-257 melanoma): 29.4 µM
TGI (UACC-62 melanoma): 22.4 µM
TGI (DLD-1 colon): 30.8 µM
TGI (HOP-18 NSCLC): 32.4 µM
TGI (KM12 colon): 50 µM
TGI (SK-MEL-5 melanoma): 28.5 µM
TGI (HCT-116 colon): 27.5 µM
TGI (CAKI-1 renal): 70.5 µM
TGI (A498 renal): 45.1 µM
TGI (UO-31 renal): 38.3 µM
TGI (ACHN renal): > 100 µM
TGI (HCT-15 colon): 57.3 µM
TGI (OVCAR-4 ovarian): 74.2 µM
TGI (SN12C renal): 46.8 µM
TGI (MOLT-4 leukemia): 27.9 µM
TGI (MALME-3M melanoma): 26.9 µM
TGI (SNB-19 CNS): 29 µM
TGI (U251 CNS): 37.3 µM
TGI (IGROV1 ovarian): 77.9 µM
TGI (786-0 renal): 36.6 µM
TGI (RXF-631 renal): 60.3 µM
TGI (NCI-H23 lung): 40.6 µM
TGI (LOX IMVI melanoma): 32.7 µM
TGI (OVCAR-3 ovarian): 38 µM
TGI (LXFL 529 NSCLC): 27.4 µM
TGI (XF 498 CNS): 23.3 µM
TGI (NCI-H460 lung): 83.9 µM
TGI (NCI-H226 lung): 21.5 µM

— PubChem BioAssay (NCI)
